{"source": "patent US20190029257A1", "about": "“APPLICATION FOR HERBICIDE-TOLERANT PROTEIN” (BEIJING DABEINONG TECHNOLOGY GROUP CO., LTD., priority 2016, published 2019)", "format_in_all_cases": "in vivo", "key": {"[1]": {"tested_on": "wild-type Arabidopsis thaliana plants", "assay": "Herbicide tolerance of Arabidopsis thaliana plants (spray, resistance classes counted)", "from_the_text": "T1 transformants were initially selected from the background of untransformed seeds using a glufosinate selection scheme. About 40000 T1 seeds were screened, and 380 T1 positive transformants (PAT gene) were identified with a transformation efficiency of about 0.95%. The plants that were transformed with the recombinant expression vector DBN100632 were Arabidopsis thaliana plants having an ALT-1-01 nucleotide sequence located in the cytoplasm introduced (At cytoplasmic ALT-1-01), and the plants that were transformed with the recombinant expression vector DBN100631 were Arabidopsis thaliana plants having an ALT-1-01 nucleotide sequence located in the chloroplast introduced (At chloroplastic ALT-1-01); the plants that were transformed with the recombinant expression vector DBN100634 were Arabidopsis thaliana plants having an ALT-2-01 nucleotide sequence located in the cytoplasm introduced (At cytoplasmic ALT-2-01), and the plants that were transformed with the recombinant expression vector DBN100633 were Arabidopsis thaliana plants having an ALT-2-01 nucleotide sequence located in the chloroplast introduced (At chloroplastic ALT-2-01); and the plants that were transformed with the recombinant expression vector DBN100636 were Arabidopsis thaliana plants having an ALT-3-01 nucleotide sequence located in the cytoplasm introduced (At cytoplasmic ALT-3-01), and the plants that were transformed with the recombinant expression vector DBN100635 were Arabidopsis thaliana plants having an ALT-3-01 nucleotide sequence located in the chloroplast introduced (At chloroplastic ALT-3-01). The herbicide tolerance effects of At cytoplasmic ALT-1-01 T1 plants, At chloroplastic ALT-1-01 T1 plants, At cytoplasmic ALT-2-01 T1 plants, At chloroplastic ALT-2-01 T1 plants, At cytoplasmic ALT-3-01 T1 plants, At chloroplastic ALT-3-01 T1 plants and wild-type Arabidopsis thaliana plants on halosulfuron-methyl were detected (14 days after sowing), respectively.\nAt cytoplasmic ALT-1-01 T1 plants, At chloroplastic ALT-1-01 T1 plants, At cytoplasmic ALT-2-01 T1 plants, At chloroplastic ALT-2-01 T1 plants, At cytoplasmic ALT-3-01 T1 plants, At chloroplastic ALT-3-01 T1 plants and wild-type Arabidopsis thaliana plants were sprayed with halosulfuron-methyl (34 g ai/ha, 1-fold field concentration) and a blank solvent (water), respectively. Plants were counted for the resistance situations 14 days after spraying: those having a consistent growth status with the blank solvent (water) group after 14 days were classified as highly resistant plants, those having a bolting height less than ½ of that of the blank solvent (water) group after 14 days were classified as moderately resistant plants, those still not capable of bolting after 14 days were classified as poorly resistant plants, and those dead after 14 days were classified as non-resistant plants. Since each Arabidopsis thaliana T1 plant was an independent transformation event, a significant difference in individual T1 responses could be expected at a given dose.\nAt cytoplasmic ALT-1-01 T1 plants, At chloroplastic ALT-1-01 T1 plants, At cytoplasmic ALT-2-01 T1 plants, At chloroplastic ALT-2-01 T1 plants, At cytoplasmic ALT-3-01 T1 plants, At chloroplastic ALT-3-01 T1 plants and wild-type Arabidopsis thaliana plants in Example 4 were sprayed with iodosulfuron-methyl (10 g ai/ha, 1-fold field concentration), mesosulfuron (14 g ai/ha, 1-fold field concentration) and oxasulfuron (60 g ai/ha, 1-fold field concentration), respectively, in addition to halosulfuron-methyl (34 g ai/ha, 1-fold field concentration) and the blank solvent (water). […]"}, "[2]": {"tested_on": "Gm cytoplasmic ALT-2-01 soybean plants", "assay": "Halosulfuron-methyl tolerance of soybean plants (damage degree)", "settings": "34 g ai/ha (1x Hal.); for Average damage % 3 DAT: 3 days after spraying; for Average damage % 7 DAT: 7 days after spraying; for Average damage % 14 DAT: 14 days after spraying; for Average damage % 21 DAT: 21 days after spraying", "from_the_text": "(§1) The herbicide tolerance effects of Gm cytoplasmic ALT-1-01 soybean plants, Gm chloroplastic ALT-1-01 soybean plants, Gm cytoplasmic ALT-2-01 soybean plants, Gm chloroplastic ALT-2-01 soybean plants, Gm cytoplasmic ALT-3-01 soybean plants, Gm chloroplastic ALT-3-01 soybean plants and wild-type soybean plants on halosulfuron-methyl were detected (at seedling stage), respectively.\n(§2) Gm cytoplasmic ALT-1-01 soybean plants, Gm chloroplastic ALT-1-01 soybean plants, Gm cytoplasmic ALT-2-01 soybean plants, Gm chloroplastic ALT-2-01 soybean plants, Gm cytoplasmic ALT-3-01 soybean plants, Gm chloroplastic ALT-3-01 soybean plants and wild-type soybean plants were respectively taken and sprayed with halosulfuron-methyl (34 g ai/ha, 1-fold field concentration) and a blank solvent (water). The damage degree caused by the herbicide was measured for each plant according to the leaf curl degree and the growth point damage degree 3 days after spraying (3 DAT), 7 days after spraying (7 DAT), 14 days after spraying (14 DAT) and 21 days after spraying (21 DAT), respectively: considering conditions of leaves being flat as the untreated plants and growth points being intact as having a damage degree of 0%; considering conditions of veins being locally browned, new leaves being malformed and plant growth being slow as having a damage degree of 50%; and considering conditions of veins being purple to whole plant being dead and growth points being browned and dry as having a damage degree of 100%. There were 2 strains in Gm cytoplasmic ALT-1-01 soybean plants in total (S1 and S2), 2 strains in Gm chloroplastic ALT-1-01 soybean plants in total (S3 and S4), 2 strains in Gm cytoplasmic ALT-2-01 soybean plants in total (S5 and S6), 2 strains in Gm chloroplastic ALT-2-01 soybean plants in total (S7 and S8), 2 strains in Gm cytoplasmic ALT-3-01 soybean plants in total (S9 and S10), 2 strains in Gm chloroplastic ALT-3-01 soybean plants in total (S11 and S12), and 1 strain in wild-type soybean plants (CK1) in total; and 10-15 plants were selected from each strain and tested."}, "[3]": {"tested_on": "Gm chloroplastic ALT-1-01 soybean plants", "assay": "Halosulfuron-methyl tolerance of soybean plants (damage degree)", "settings": "34 g ai/ha (1x Hal.); for Average damage % 3 DAT: 3 days after spraying; for Average damage % 7 DAT: 7 days after spraying; for Average damage % 14 DAT: 14 days after spraying; for Average damage % 21 DAT: 21 days after spraying", "from_the_text": "as §1, §2"}, "[4]": {"tested_on": "Gm cytoplasmic ALT-3-01 soybean plants", "assay": "Halosulfuron-methyl tolerance of soybean plants (damage degree)", "settings": "34 g ai/ha (1-fold field concentration); for Average damage % 3 DAT: 3 days after spraying; for Average damage % 7 DAT: 7 days after spraying; for Average damage % 14 DAT: 14 days after spraying; for Average damage % 21 DAT: 21 days after spraying", "from_the_text": "as §1, §2"}, "[5]": {"settings": "18 g ai/ha (1x Hal.), number of plants 14 days after spraying, Total 32"}}}
{"compound": "COC(=O)c1c(Cl)nn(C)c1S(=O)(=O)NC(=O)Nc1nc(OC)cc(OC)n1", "note": "[halosulfuron-methyl, 3-chlorine-5-(4,6-dimethoxypyrimidine-2-aminocarbonylaminosulphonyl)-1-methylpyrazole-4-carboxylic acid methyl ester]", "values": [{"measurement": "Highly resistant", "setting": "[1]; [5]", "value": 0}, {"measurement": "Moderately resistant", "setting": "[1]; [5]", "value": 0}, {"measurement": "Non-resistant", "setting": "[1]; [5]", "value": 32}, {"measurement": "Poorly resistant", "setting": "[1]; [5]", "value": 0}, {"measurement": "tolerance of the plants to the herbicide", "setting": "[1]; 34 g ai/ha, summary of Table 1 and FIG. 4", "value": "none of the wild-type Arabidopsis thaliana plants was tolerant"}, {"measurement": "Average damage % 3 DAT", "setting": "[2]; strain S5", "value": 14, "unit": "%"}, {"measurement": "Average damage % 7 DAT", "setting": "[2]; strain S5", "value": 6, "unit": "%"}, {"measurement": "Average damage % 14 DAT", "setting": "[2]; strain S5", "value": 0, "unit": "%"}, {"measurement": "Average damage % 21 DAT", "setting": "[2]; strain S5", "value": 0, "unit": "%"}, {"measurement": "Average damage % 3 DAT", "setting": "[2]; strain S6", "value": 12, "unit": "%"}, {"measurement": "Average damage % 7 DAT", "setting": "[2]; strain S6", "value": 6, "unit": "%"}, {"measurement": "Average damage % 14 DAT", "setting": "[2]; strain S6", "value": 0, "unit": "%"}, {"measurement": "Average damage % 21 DAT", "setting": "[2]; strain S6", "value": 0, "unit": "%"}, {"measurement": "Average damage % 3 DAT", "setting": "[3]; strain S3", "value": 10, "unit": "%"}, {"measurement": "Average damage % 7 DAT", "setting": "[3]; strain S3", "value": 5, "unit": "%"}, {"measurement": "Average damage % 14 DAT", "setting": "[3]; strain S3", "value": 0, "unit": "%"}, {"measurement": "Average damage % 21 DAT", "setting": "[3]; strain S3", "value": 0, "unit": "%"}, {"measurement": "Average damage % 3 DAT", "setting": "[3]; strain S4", "value": 11, "unit": "%"}, {"measurement": "Average damage % 7 DAT", "setting": "[3]; strain S4", "value": 5, "unit": "%"}, {"measurement": "Average damage % 14 DAT", "setting": "[3]; strain S4", "value": 0, "unit": "%"}, {"measurement": "Average damage % 21 DAT", "setting": "[3]; strain S4", "value": 0, "unit": "%"}, {"measurement": "Average damage % 3 DAT", "setting": "[4]; strain S9", "value": 13, "unit": "%"}, {"measurement": "Average damage % 7 DAT", "setting": "[4]; strain S9", "value": 6, "unit": "%"}, {"measurement": "Average damage % 14 DAT", "setting": "[4]; strain S9", "value": 0, "unit": "%"}, {"measurement": "Average damage % 21 DAT", "setting": "[4]; strain S9", "value": 0, "unit": "%"}, {"measurement": "Average damage % 3 DAT", "setting": "[4]; strain S10", "value": 12, "unit": "%"}, {"measurement": "Average damage % 7 DAT", "setting": "[4]; strain S10", "value": 5, "unit": "%"}, {"measurement": "Average damage % 14 DAT", "setting": "[4]; strain S10", "value": 0, "unit": "%"}, {"measurement": "Average damage % 21 DAT", "setting": "[4]; strain S10", "value": 0, "unit": "%"}]}
